According to patent US20250228865A1, “COMPOUNDS FOR ENHANCING READ THROUGH OF GENES CONTAINING PREMATURE TERMINATION CODONS AND METHODS FOR MAKING AND USING THE SAME” (Sanofi US Services Inc., priority 2022, published 2025):

What was measured:
[1] = tested on: recombinant human CFTR carrying the premature stop codon (PTC) mutation G542X; test: CFTR-PTC mutant translation readthrough, Nanoluc tagged CFTR luminescence (G542X cell line); type: cell-based; settings: in combination with G418, G542X cell line; for CFTR G542X ACTIVITY Fold 10 μM G-418: fold over 10 μM G-418; for EC50: 16HBE cells
Procedure, shortened: (§1)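 16HBE cells stably expressing Nanoluc-tagged human CFTR with G542X or R1162X, in medium with 3 μM VX-809, treated 48 h at 37 °C with compound (10-point, 2-fold, top 50 μM final) alone or with 10 μM G418. Live-cell Nanoluc luminescence normalised to a maximally effective G418 (125-250 μM).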

[2] = tested on: recombinant human CFTR carrying the premature stop codon (PTC) mutation R1162X; test: CFTR-PTC mutant translation readthrough, Nanoluc tagged CFTR luminescence (R1162X cell line); type: cell-based; settings: for CFTR R1162X ACTIVITY Fold 10 μM G-418: fold over 10 μM G-418, in combination with G418; for EC50: in combination with G418, 16HBE cells, read-out: CFTR R1162X ACTIVITY EC50
Procedure, shortened: as §1

Compound | EC50 [1] [µM] | EC50 [2] [µM] | CFTR G542X ACTIVITY Fold 10 μM G-418 [1] | CFTR R1162X ACTIVITY Fold 10 μM G-418 [2]
CC(C)C1NC(=O)N(c2ccc(OCc3c(Cl)cccc3C(F)(F)F)cc2)C1=O (stereo not shown) | < 1 | 1 to 10 | A′ (A′ = ≥10X) | B′ (B′ = ≥5X to <10X)
O=C(O)C1CN(c2ncc(OCc3c(Cl)cccc3C(F)(F)F)cn2)CCO1 (stereo not shown) [4-[5-[[2-chloro-6-(trifluoromethyl)phenyl]methoxy]pyrimidin-] | 1 to 10 | < 1 | C′ (C′ = <5X) | –
OCC1CN(c2ncc(OCc3c(Cl)cccc3C(F)(F)F)cn2)CCO1 (stereo not shown) | < 1 | < 1 | A′ (A′ = ≥10X) | A′ (A′ = ≥10X)
Cc1cccc(C(F)(F)F)c1COc1cnc(-n2cnc(CO)n2)nc1 | < 1 | 1 to 10 | A′ (A′ = ≥10X) | A′ (A′ = ≥10X)
Cc1cccc(C(F)(F)F)c1COc1ccc(-n2cnc(CO)c2)nc1 | < 1 | 1 to 10 | A′ (A′ = ≥10X) | A′ (A′ = ≥10X)
O=C1OC(CO)CN1c1ccc(CCc2c(Cl)cccc2Cl)cn1 (stereo not shown) [3-[5-[2-(2,6-dichlorophenyl)ethyl]-2-pyridyl]-5-(hydroxymethyl)oxazolidin-2-one] | 1 to 10 | > 10 | B′ (B′ = ≥5X to <10X) | A′ (A′ = ≥10X)
Cc1cccc(C(F)(F)F)c1COc1cnc(N2CCOC(CO)C2)nc1 (stereo not shown) | < 1 | < 1 | A′ (A′ = ≥10X) | A′ (A′ = ≥10X)
OCc1nc(-c2ccc(OCc3c(Cl)cccc3Cl)cc2)co1 [[4-[4-[(2,6-dichlorophenyl)methoxy]phenyl]oxazol-2-yl]methanol] | 1 to 10 | 1 to 10 | A′ (A′ = ≥10X) | A′ (A′ = ≥10X)
Cc1cccc(C(F)(F)F)c1COc1cnc(N2CCC[C@H](O)C2)nc1 | < 1 | < 1 | A′ (A′ = ≥10X) | A′ (A′ = ≥10X)
CCc1cccc(C(F)(F)F)c1COc1cnc(-n2ccc(CO)n2)nc1 | < 1 | < 1 | A′ (A′ = ≥10X) | A′ (A′ = ≥10X)
CN1C(=O)CN(c2ncc(OCc3c(Cl)cccc3C(F)(F)F)cn2)CC1CO (stereo not shown) | < 1 | 1 to 10 | C′ (C′ = <5X) | C′ (C′ = <5X)
O=C(O)C1CN(c2ncc(OCc3c(Cl)cccc3C(F)(F)F)cn2)CCO1 (stereo not shown) [4-(5-{[2-chloro-6-(trifluoromethyl)phenyl]methoxy}pyrimidin-] | 1 to 10 | > 10 | – | –
Cc1cccc(C)c1COc1ccc(N2CC(CO)OC2=O)cc1 (stereo not shown) [3-[4-[(2,6-dimethylphenyl)methoxy]phenyl]-5-(hydroxymethyl)oxazolidin-2-one] | 1 to 10 | > 10 | B′ (B′ = ≥5X to <10X) | A′ (A′ = ≥10X)
O=C1CN(c2ncc(OCc3c(Cl)cccc3C(F)(F)F)cn2)C(=O)N1 | 1 to 10 | 1 to 10 | A′ (A′ = ≥10X) | A′ (A′ = ≥10X)
NC(=O)[C@@H]1CCN(c2ncc(OCc3c(Cl)cccc3C(F)(F)F)cn2)C1 | 1 to 10 | 1 to 10 | A′ (A′ = ≥10X) | A′ (A′ = ≥10X)
O=C1OC(CO)CN1c1ccc(OCc2c(Cl)cc(F)cc2Cl)cc1 (stereo not shown) | > 10 | > 10 | B′ (B′ = ≥5X to <10X) | B′ (B′ = ≥5X to <10X)
O=C(O)C1CCCN(c2ncc(OCc3c(Cl)cccc3C(F)(F)F)cn2)C1 (stereo not shown) [1-[5-[[2-chloro-6-(trifluoromethyl)phenyl]methoxy]pyrimidin-] | 1 to 10 | < 1 | C′ (C′ = <5X) | –
Cc1cccc(C(F)(F)F)c1COc1cnc(N2CC(=O)N(CO)C2=O)nc1 | 1 to 10 | 1 to 10 | A′ (A′ = ≥10X) | A′ (A′ = ≥10X)
NC(=O)c1ccn(-c2ncc(OCc3c(Cl)cccc3C(F)(F)F)cn2)n1 | < 1 | < 1 | A′ (A′ = ≥10X) | A′ (A′ = ≥10X)
OCc1ncn(-c2ccc(OCc3c(Cl)cccc3C(F)(F)F)cc2)n1 | < 1 | 1 to 10 | A′ (A′ = ≥10X) | A′ (A′ = ≥10X)

Second part, led by results:

EC50 [1] [µM] | EC50 [2] [µM] | Compound | CFTR G542X ACTIVITY Fold 10 μM G-418 [1] | CFTR R1162X ACTIVITY Fold 10 μM G-418 [2]
< 1 | 1 to 10 | OCC1CN(c2ncc(OCc3c(Cl)cccc3Cl)cn2)CCO1 (stereo not shown) [[4-[5-[(2,6-dichlorophenyl)methoxy]pyrimidin-2-yl]morpholin-2-yl]methanol] | A′ (A′ = ≥10X) | A′ (A′ = ≥10X)
> 10 | > 10 | COC(=O)C1CN(c2ncc(OCc3c(Cl)cccc3Cl)cn2)CC(=O)N1 (stereo not shown) | A′ (A′ = ≥10X) | B′ (B′ = ≥5X to <10X)
1 to 10 | 1 to 10 | O=C1CN(c2ncc(OCc3c(Cl)cccc3Cl)cn2)CC(CO)N1 (stereo not shown) | A′ (A′ = ≥10X) | A′ (A′ = ≥10X)
< 1 | < 1 | NC(=O)N1CCN(c2ncc(OCc3c(Cl)cccc3C(F)(F)F)cn2)CC1 | A′ (A′ = ≥10X) | A′ (A′ = ≥10X)
1 to 10 | 1 to 10 | CN(C(N)=O)c1ncc(OCc2c(Cl)cccc2Cl)cn1 [1-[5-[(2,6-dichlorophenyl)methoxy]pyrimidin-2-yl]-1-methyl-urea] | A′ (A′ = ≥10X) | A′ (A′ = ≥10X)
< 1 | 1 to 10 | OC[C@@H]1CN(c2ncc(OCc3c(Cl)cccc3Cl)cn2)C[C@@H](C(F)(F)F)O1 (racemic) | A′ (A′ = ≥10X) | B′ (B′ = ≥5X to <10X)
1 to 10 | 1 to 10 | OCC1CN(c2ncc(OCc3c(Cl)cccc3Cl)cn2)CCN1 (stereo not shown) [[4-[5-[(2,6-dichlorophenyl)methoxy]pyrimidin-2-yl]piperazin-2-yl]methanol] | A′ (A′ = ≥10X) | A′ (A′ = ≥10X)
< 1 | < 1 | CN(CCCCO)c1ncc(OCc2c(Cl)cccc2Cl)cn1 [4-[[5-[(2,6-dichlorophenyl)methoxy]pyrimidin-2-yl]-methyl-amino]butan-1-ol] | A′ (A′ = ≥10X) | A′ (A′ = ≥10X)
< 1 | 1 to 10 | OCc1cc(-c2ncc(OCc3c(Cl)cccc3Cl)cn2)no1 [[3-[5-[(2,6-dichlorophenyl)methoxy]pyrimidin-2-yl]isoxazol-5-yl]methanol] | A′ (A′ = ≥10X) | A′ (A′ = ≥10X)
